In patent US12605354B2, “Azelaic acid esters in the treatment or prevention of dyslipidemia and associated conditions” (NEW FRONTIER LABS, LLC, priority 2020, dated 2026):
Marks after values point to notes of the source that are not given here.

Columns and labels:
Format in all cases: in vivo, human
[1] = tested on: overweight to obese males; experiment: 21-day oral DEA study: fasting insulin and OGTT insulin; details: for AUC insulin: 180-minute OGTT, in µU·min/mL (unit assumed); for AUC insulin / Fasting insulin: D21 post-treatment, 21 daily oral doses of 1 mg/kg, mean
From the text: (§1) Seventeen subjects were recruited by sampling a large population at risk for T2D (according to convenience sample; a statistical method of drawing representative data) to measure the changes in glucose, lipid and insulin measurements after an OGTT after the subjects had been treated for 21 days.
(§2) The subjects were overweight to obese males with body mass indices (BMIs) ranging from 27.2 to 43.6 kg/m^2, glycated hemoglobin A1c (HbA1c) of 5.0-6.2% and insulin levels of 8.8-52 μU/mL. The study was conducted by Clinical Trials of Texas, Inc. in San Antonio, TX. The cohort represented a population at risk for the development of T2D. The study was restricted to male participants to control for the variability of insulin sensitivity associated with the menstrual cycle. The subjects received 21 daily oral doses (“q1d”) of 1 mg/kg DEA. An OGTT, in which 75 grams of glucose in a total volume of 300 mL was administered orally to subjects, was performed on Day 0 and again on Day 21 and glucose measurements performed at −30, −5 and 0 min, insulin measurements at −30 and 0 min, and both glucose measurements and insulin measurements at 30, 60, 90, 120 and 180 minutes, where “0 min” is the time at which the glucose solution was administered. The 180-minute time point was selected to gain an early insight into the possible signal of drug action. Blood lipid levels (triglycerides, cholesterol, HDL, non-cholesterol HDL and LDL) were measured before the onset of treatment on Day 0 and again on Day 21. The error of the assays was <5% [36].
(§3) The results of the various marker measurements at Day 0 and Day 21 were compared using both the paired Students T-test and the Wilcoxon signed rank test. The results of both calculations are provided; the p-value from the paired Student T-test first, followed by the p-value from the Wilcoxon signed rank test. Generalized Estimating Equations and bootstrapping were used to verify the results generated with other methods. Fasting glucose was calculated as the average of the −30, −5, and 0-minute measurements and fasting insulin was calculated as the average of the −30- and 0-minute measurements. Spearman's correlation coefficient was calculated for the relationship between A1c and pre-treatment fasting plasma glucose versus post-treatment fasting plasma glucose. Area under the curve (AUC) was calculated over the 180-minute time span of the OGTT. All analyses were performed using the open language engine R 3.4.4. Statistical significance was at the α=0.05 level.

[2] = tested on: subject, with diet induced insulin resistance and diabetes; experiment: Example 2: plasma glucose in OGTT after buccal or gastric delivery of DEA; details: for plasma glucose levels during OGTT: 0, 1, 2, 4 hours, FIG. 16
From the text: Described in this example is an evaluation of the effects of alkyl azelates, such as DEA, on certain markers of insulin resistance and dyslipidemia, namely, blood plasma glucose, insulin levels and/or lipid levels, when administered either for buccal delivery or for gastric delivery in a subject, with diet induced insulin resistance and diabetes with a BMI of approximately 27.
Diethyl azelate was synthesized from azelaic acid and ethyl alcohol sing the standard acid-catalyzed esterification followed by fractional distillation to produce DEA to 99% purity as determined by chromatography-mass spectrometry (GC-MS). The 99% distilled DEA distillation product was administered in unformulated, unencapsulated, etc. form (i.e., “as is”) for buccal delivery as indicated below.
For gastric delivery, the 99% DEA distillation product was placed in a hard gelatin capsule, size 00 (PureCaps USA, Philmont, NY) and administered for gastric delivery by swallowing with a drink of water.
Fasting blood glucose levels were measured using UniStrip blood glucose test strips (UniStrip Technologies LLC, Charlotte, NC) and OneTouchUltra 2 blood glucose meter (LifeScan OneTouch, Tampa. FL).

[3] = tested on: overweight to obese males; experiment: 21-day oral DEA study: fasting plasma glucose and OGTT glucose; details: for AUC Glucose: 180-minute OGTT, in mg·min/dL (unit assumed); for AUC Glucose / Fasting plasma glucose / Glucose 180 min: D21 post-treatment, 21 daily oral doses of 1 mg/kg, mean; for Glucose 180 min: OGTT
From the text: as §1, §2, §3
For measuring the effect of DEA on blood glucose, an assessment of fasting plasma glucose levels was relied upon, which is a measure that is commonly used as an indication that a subject may be diabetic. A level under 100 mg/dL is considered clinically normal while the range between 100 and 125 mg/dL is indicative of prediabetes. At the threshold of 100 mg/dL the human body begins to have a compromised insulin response to glucose shock. The OGTT was used, in which a standard dose of glucose was ingested by mouth, and blood samples were taken at specified time points after ingestion. Plasma blood glucose measurements were then obtained as a means of understanding the pharmacodynamic effects of DEA.

SMILES: CCOC(=O)CCCCCCCC(=O)OCC [DEA, diethyl azelate]
- AUC insulin ([1]; All (n = 17), D0 24963): 26834
- AUC insulin ([1]; FPG <100 mg/dL (n = 8), D0 22215): 27461
- AUC insulin ([1]; FPG >100 mg/dL (n = 9), D0 27405): 26275
- AUC insulin ([1]; High A1c (n = 9), D0 27055): 25988
- AUC insulin ([1]; Low A1c (n = 8), D0 22609): 27785
- Fasting insulin ([1]; All (n = 17), D0 26.082): 25.894 μU/mL
- Fasting insulin ([1]; FPG <100 mg/dL (n = 8), D0 20.212): 20.95 μU/mL
- Fasting insulin ([1]; FPG >100 mg/dL (n = 9), D0 31.3): 30.289 μU/mL
- Fasting insulin ([1]; High A1c (n = 9), D0 30.411): 28.9 μU/mL
- Fasting insulin ([1]; Low A1c (n = 8), D0 21.212): 22.512 μU/mL
- decrease of fasting insulin ([1]; all 17 subjects, p=0.916, p=0.963): 0.7 μU/mL
- decrease of median insulin area under the curve (AUC) ([1]; high A1c group, not statistically significant): 1663.5
- decrease of fasting insulin ([1]; high A1c group, p=0.916, p=0.963): 0.84 μU/mL
- decrease of fasting insulin ([1]; high fasting plasma glucose group, p=0.752, p=0.855): 2.97 μU/mL
- increase of median insulin area under the curve (AUC) ([1]; low A1c group, not statistically significant): 3380.25
- decrease of fasting insulin ([1]; remaining 16 subjects (subject #1 excluded), p=0.007, 0.009): 13.4%
- average fasting insulin post-treatment ([1]; subject #1, outlier in the high A1c group, increased from 77.45 pre-treatment): 96.15 μU/mL
- median decrease of fasting insulin ([1]; subset of 8 subjects (#2-4, 8-11, and 13)): 42.5%
- decrease of mean fasting insulin ([1]; subset of 8 subjects (#2-4, 8-11, and 13), p=0.004, p=0.008): 37.8%
- improvement in plasma glucose levels, buccal relative to gastric delivery ([2]; at 0 hour and 4 hours after 75 grams of glucose in OGTT, FIG. 17, T test): significantly significant greater improvement
- plasma glucose levels during OGTT ([2]; buccal delivery vs 0 mg/kg, more pronounced at 0.5 mg/kg): lowered (i.e., improved) plasma glucose levels at most tested DEA dosages and post-glucose ingestion time points
- plasma glucose concentrations during OGTT ([2]; buccal, 0.5-4 mg/kg vs 0, 0, 1, 2, 4 hours after 75 grams of glucose, FIG. 10, most pronounced at 0.5 and 1 mg/kg): lowered (improved) plasma glucose levels
- plasma glucose concentrations during fasting OGTT ([2]; buccal, 0.5-4 mg/kg vs 0, FIG. 11, most pronounced at 0.5 and 1 mg/kg): lowered (improved) plasma glucose levels
- plasma glucose concentrations during OGTT at 1 hour ([2]; buccal, 0.5-4 mg/kg vs 0, FIG. 12, most pronounced at 0.5 mg/kg): lowered (improved) plasma glucose levels in the setting of OGTT at all DEA dosage amounts
- plasma glucose concentrations during OGTT at 2 hours ([2]; buccal, 0.5-4 mg/kg vs 0, FIG. 13, most pronounced at 0.5 and 1 mg/kg): lowered (improved) plasma glucose levels in the setting of OGTT at all DEA dosage amounts
- plasma glucose concentrations during OGTT at 4 hours ([2]; buccal, 0.5-4 mg/kg vs 0, FIG. 14): lowered (improved) plasma glucose levels in the setting of OGTT at the 0.5 mg/kg, 1 mg/kg, and 4 mg/kg DEA dosage amounts
- plasma glucose levels during OGTT ([2]; gastric delivery vs 0 mg/kg, more pronounced at 0.25 mg/kg): lowered (i.e., improved) plasma glucose levels at most tested DEA dosages and post-glucose ingestion time points
- average decrease of fasting glucose ([3]; 8 subjects with a fasting glucose≥100 mg/dL, Day 21 vs Day 0, p=0.033, p=0.06): 6.06 mg/dL
- AUC Glucose ([3]; All (n = 17), D0 25826): 25356
- AUC Glucose ([3]; FPG <100 mg/dL (n = 8), D0 23530): 24475
- AUC Glucose ([3]; FPG >100 mg/dL (n = 9), D0 27867): 26138
- AUC Glucose ([3]; High A1c (n = 9), D0 27313): 25889
- AUC Glucose ([3]; Low A1c (n = 8), D0 24153): 24756
- Fasting plasma glucose ([3]; All (n = 17), D0 101.662): 99.732 mg/dL
- Fasting plasma glucose ([3]; FPG <100 mg/dL (n = 8), D0 92.769): 97.25 mg/dL
- Fasting plasma glucose ([3]; FPG >100 mg/dL (n = 9), D0 109.567, P < 0.01): 101.939** mg/dL
- Fasting plasma glucose ([3]; High A1c (n = 9), D0 105.156): 100.261 mg/dL
- Fasting plasma glucose ([3]; Low A1c (n = 8), D0 97.731): 99.138 mg/dL
- Glucose 180 min ([3]; All (n = 17), D0 100.315): 91.579 mg/dL
- Glucose 180 min ([3]; FPG <100 mg/dL (n = 8), D0 89.919): 86.494 mg/dL
- Glucose 180 min ([3]; FPG >100 mg/dL (n = 9), D0 109.556): 96.1 mg/dL
- Glucose 180 min ([3]; High A1c (n = 9), D0 108.978): 95.128 mg/dL
- Glucose 180 min ([3]; Low A1c (n = 8), D0 90.569): 87.588 mg/dL
- increase of post-treatment fasting glucose ([3]; entire cohort of 17 subjects, Day 21 vs Day 0, insignificant (p=0.962; p=0.96)): 0.11 mg/dL
- average decrease of glucose at 180 minutes ([3]; entire cohort, not significant (p=0.136; 0.057)): 9.14%
- decrease in 180 min plasma glucose after treatment ([3]; remaining 16 subjects (subject #1 excluded), p=0.002, 0.003): 13.5%
- increase of glucose at 180 minutes ([3]; single outlier (subject #1)): 58.6%
- fasting glucose level post-treatment ([3]; subject #1 (A1c 6.2%), decreased from 123.8): 116.3 mg/dL
- 180 min glucose level post-treatment ([3]; subject #1 (A1c 6.2%), decreased from 200.0): 184.5 mg/dL
- 180 min glucose level post-treatment ([3]; subject #2 (A1c 6.1%), from 88.3): 69 mg/dL
- 180 min glucose level post-treatment ([3]; subject #3 (A1c 6.0%), from 146): 119 mg/dL
- average decrease of fasting glucose ([3]; subjects with HbA1c≥5.6%, Day 21 vs Day 0, p=0.128, p=0.22): 4.25 mg/dL
- median decrease of glucose levels at 180 minutes ([3]; subset of 12 subjects, Day 21): 25.3%
- average decrease of glucose levels at 180 minutes ([3]; subset of 12 subjects, Day 21, p<0.001): 21.7%
